Measurements: the NIST ThermoML archive (doi:10.1021/je900874z)

How the values were obtained:
[1] = 101.33 kPa, Liquid; for speed of sound: Pulse-echo method
[2] = xn = mol fraction of the nth substance listed; details: 101 kPa, Liquid

CNc1ccccc1 [N-methylaniline]
[1]
Details	mass density [kg/m3]	speed of sound [m/s]
293.15 K	986.077	1582.3
298.15 K	982.066	1564.4
303.15 K	978.011	1545.5

CNc1ccccc1 [N-methylaniline] + CC(C)=O
[2]
Details	mass density [kg/m3]
293.15 K, x2 = 0.0565	979.562
293.15 K, x2 = 0.1032	973.934
293.15 K, x2 = 0.1494	968.145
293.15 K, x2 = 0.1916	962.605
293.15 K, x2 = 0.251	954.413
293.15 K, x2 = 0.2952	948.053
293.15 K, x2 = 0.3555	938.912
293.15 K, x2 = 0.4039	931.04
293.15 K, x2 = 0.4478	923.576
293.15 K, x2 = 0.4981	914.659
293.15 K, x2 = 0.5489	905.091
293.15 K, x2 = 0.5965	895.722
293.15 K, x2 = 0.6485	884.852
293.15 K, x2 = 0.7018	873.046
293.15 K, x2 = 0.7472	862.27
293.15 K, x2 = 0.802	848.69
293.15 K, x2 = 0.8563	834.277
293.15 K, x2 = 0.9053	820.343
293.15 K, x2 = 0.9548	805.391
298.15 K, x2 = 0.044	977.005
298.15 K, x2 = 0.0984	970.455
298.15 K, x2 = 0.1447	964.607
298.15 K, x2 = 0.1996	957.353
298.15 K, x2 = 0.2503	950.29
298.15 K, x2 = 0.2919	944.327
298.15 K, x2 = 0.3511	935.283
298.15 K, x2 = 0.3924	928.532
298.15 K, x2 = 0.452	918.415
298.15 K, x2 = 0.4948	910.794
298.15 K, x2 = 0.5563	899.086
298.15 K, x2 = 0.6004	890.231
298.15 K, x2 = 0.6473	880.387
298.15 K, x2 = 0.6962	869.434
298.15 K, x2 = 0.7506	856.501
298.15 K, x2 = 0.8009	843.758
298.15 K, x2 = 0.8518	830.205
298.15 K, x2 = 0.8986	816.915
298.15 K, x2 = 0.9488	801.799
303.15 K, x2 = 0.0461	972.638
303.15 K, x2 = 0.0934	966.889
303.15 K, x2 = 0.1524	959.343
303.15 K, x2 = 0.1937	953.815
303.15 K, x2 = 0.2442	946.596
303.15 K, x2 = 0.3357	933.026
303.15 K, x2 = 0.3991	922.737
303.15 K, x2 = 0.4904	906.677
303.15 K, x2 = 0.5507	895.228
303.15 K, x2 = 0.5949	886.274
303.15 K, x2 = 0.6467	875.21
303.15 K, x2 = 0.6928	864.807
303.15 K, x2 = 0.7424	852.961
303.15 K, x2 = 0.7993	838.524
303.15 K, x2 = 0.8469	825.646
303.15 K, x2 = 0.8977	811.117
303.15 K, x2 = 0.9484	795.598

CC(C)=O [acetone]
[1]
Details	mass density [kg/m3]	speed of sound [m/s]
293.15 K	790.694	1182.8
298.15 K	785.32	1160.7
303.15 K	778.812	1138.7

Nc1ccccc1 [aniline]
[1]
Details	mass density [kg/m3]	speed of sound [m/s]
293.15 K	1021.7	1657
298.15 K	1017.41	1638.6
303.15 K	1013.04	1619.2

Nc1ccccc1 [aniline] + CC(C)=O
[2]
Details	mass density [kg/m3]
293.15 K, x2 = 0.0522	1013.71
293.15 K, x2 = 0.1078	1004.97
293.15 K, x2 = 0.1567	996.941
293.15 K, x2 = 0.2074	988.429
293.15 K, x2 = 0.249	981.269
293.15 K, x2 = 0.3016	971.707
293.15 K, x2 = 0.3454	963.326
293.15 K, x2 = 0.3832	955.799
293.15 K, x2 = 0.4313	946.013
293.15 K, x2 = 0.4908	933.416
293.15 K, x2 = 0.5497	920.272
293.15 K, x2 = 0.583	912.529
293.15 K, x2 = 0.6446	897.535
293.15 K, x2 = 0.6911	885.684
293.15 K, x2 = 0.7465	870.629
293.15 K, x2 = 0.8046	854.022
293.15 K, x2 = 0.8497	840.545
293.15 K, x2 = 0.9045	823.238
293.15 K, x2 = 0.9475	809.118
298.15 K, x2 = 0.0569	1008.67
298.15 K, x2 = 0.1088	1000.44
298.15 K, x2 = 0.1539	993.118
298.15 K, x2 = 0.1978	985.694
298.15 K, x2 = 0.2484	976.895
298.15 K, x2 = 0.3039	966.77
298.15 K, x2 = 0.3505	957.976
298.15 K, x2 = 0.4114	945.773
298.15 K, x2 = 0.4585	935.933
298.15 K, x2 = 0.5035	926.122
298.15 K, x2 = 0.5501	915.531
298.15 K, x2 = 0.5922	905.703
298.15 K, x2 = 0.6499	891.425
298.15 K, x2 = 0.6993	878.643
298.15 K, x2 = 0.7522	864.125
298.15 K, x2 = 0.8082	848.052
298.15 K, x2 = 0.8533	834.272
298.15 K, x2 = 0.8951	821.048
298.15 K, x2 = 0.9545	801.258
303.15 K, x2 = 0.0515	1005.02
303.15 K, x2 = 0.1002	997.272
303.15 K, x2 = 0.1475	989.506
303.15 K, x2 = 0.1926	981.799
303.15 K, x2 = 0.2399	973.527
303.15 K, x2 = 0.3024	962.003
303.15 K, x2 = 0.3475	953.088
303.15 K, x2 = 0.3947	943.989
303.15 K, x2 = 0.4503	932.55
303.15 K, x2 = 0.4979	922.075
303.15 K, x2 = 0.5502	910.191
303.15 K, x2 = 0.6037	897.422
303.15 K, x2 = 0.6464	886.697
303.15 K, x2 = 0.6975	873.362
303.15 K, x2 = 0.7548	857.721
303.15 K, x2 = 0.8078	842.147
303.15 K, x2 = 0.8567	827.148
303.15 K, x2 = 0.9014	812.779
303.15 K, x2 = 0.9494	796.575

c1ccncc1 [pyridine]
[1]
Details	mass density [kg/m3]	speed of sound [m/s]
293.15 K	983.053	1436.7
298.15 K	978.05	1416.7
303.15 K	972.98	1396.6

c1ccncc1 [pyridine] + CC(C)=O
[2]
Details	mass density [kg/m3]
293.15 K, x2 = 0.0577	973.393
293.15 K, x2 = 0.1007	966.028
293.15 K, x2 = 0.1536	956.946
293.15 K, x2 = 0.2043	948.163
293.15 K, x2 = 0.2219	945.011
293.15 K, x2 = 0.2968	931.713
293.15 K, x2 = 0.3537	921.354
293.15 K, x2 = 0.4051	911.899
293.15 K, x2 = 0.5191	890.383
293.15 K, x2 = 0.5519	884.082
293.15 K, x2 = 0.5969	875.296
293.15 K, x2 = 0.6425	866.297
293.15 K, x2 = 0.703	854.168
293.15 K, x2 = 0.7504	844.514
293.15 K, x2 = 0.8066	832.904
293.15 K, x2 = 0.8569	822.218
293.15 K, x2 = 0.9019	812.518
293.15 K, x2 = 0.9456	803.006
298.15 K, x2 = 0.0514	969.365
298.15 K, x2 = 0.0969	961.623
298.15 K, x2 = 0.1486	952.705
298.15 K, x2 = 0.2023	943.375
298.15 K, x2 = 0.2444	935.93
298.15 K, x2 = 0.296	926.692
298.15 K, x2 = 0.3544	916.021
298.15 K, x2 = 0.3965	908.33
298.15 K, x2 = 0.4516	898.006
298.15 K, x2 = 0.5036	888.119
298.15 K, x2 = 0.594	870.616
298.15 K, x2 = 0.6454	860.492
298.15 K, x2 = 0.6971	850.007
298.15 K, x2 = 0.7518	838.783
298.15 K, x2 = 0.8049	827.707
298.15 K, x2 = 0.8456	819.096
298.15 K, x2 = 0.8955	808.385
298.15 K, x2 = 0.9456	797.415
303.15 K, x2 = 0.0493	964.637
303.15 K, x2 = 0.0954	956.714
303.15 K, x2 = 0.1463	947.874
303.15 K, x2 = 0.1983	938.736
303.15 K, x2 = 0.2424	930.863
303.15 K, x2 = 0.2929	921.779
303.15 K, x2 = 0.3522	910.875
303.15 K, x2 = 0.4048	901.126
303.15 K, x2 = 0.4497	892.629
303.15 K, x2 = 0.497	883.593
303.15 K, x2 = 0.5412	875.069
303.15 K, x2 = 0.5965	864.243
303.15 K, x2 = 0.6594	851.677
303.15 K, x2 = 0.6912	845.142
303.15 K, x2 = 0.7491	833.115
303.15 K, x2 = 0.8475	812.305
303.15 K, x2 = 0.8946	802.071
303.15 K, x2 = 0.9443	791.125
